From patent publication US9290481B2, “Monocyclic heteroaryl cycloalkyldiamine derivatives” (NOVARTIS AG, priority 2012, dated 2016) come the findings set out here.

The test system of assay [1] is OCl-Ly3 cells. The experiment in a line: B-cell lymphoma cell proliferation (WST-1 assay), OCl-Ly3. The class given is cell-based. As to conditions: 4 days of incubation. Here is the method:
Cell proliferation was determined using the WST-1 assay (Roche, Mannheim, Germany), which measures the metabolic activity of the cells. […] The cell proliferation reagent WST-1 (10 μl/well) was added to the cells for 1-2 hours depending on the cell type which were cultured in 200 μl of medium. The absorbance was then measured with an enzyme-linked immunosorbent assay plate reader at a wavelength of 450 nm.
On the technique in general: Formazan colour is commonly taken as a measure of viable cells.

The test system of assay [2] is OCl-Ly10 cells. The experiment in a line: B-cell lymphoma cell proliferation (WST-1 assay), OCl-Ly10. The class given is cell-based. As to conditions: 72 h, 3 days of incubation. Here is the method: Cell proliferation was determined using the WST-1 assay (Roche, Mannheim, Germany), which measures the metabolic activity of the cells. Briefly, 5×10^5 TMD-8, OCl-Ly3, and OCl-Ly10 cells/well and 10×10^5 HBL-1 cells/well were seeded in triplicate in 96-well plates and were incubated with various concentrations of compounds to be tested for 3 days. The cell proliferation reagent WST-1 (10 μl/well) was added to the cells for 1-2 hours depending on the cell type which were cultured in 200 μl of medium. The absorbance was then measured with an enzyme-linked immunosorbent assay plate reader at a wavelength of 450 nm.

As for `NC(=O)c1nnc(N[C@@H]2CCCC[C@@H]2N)nc1Nc1cccc2cc[nH]c12` [Example 1.1, 3-((1R,2S)-2-Amino-cyclohexylamino)-5-(1H-indol-7-ylamino)-[1,2,4]triazine-6-carboxylic acid amide], the GI50 result in assay [1] is “No inhibition”; in assay [2] it was 25 nM.

As usually defined, the GI50 is the concentration at which growth is held to half of that of the control.
